{
  "source": "paper PMC7429263",
  "about": "(ACS infectious diseases, 2020)",
  "key": {"[1]": {"system": "VanA E. faecium ATCC BAA-2317", "experiment": "standard microdilution antimicrobial assay", "assay_type": "cell-based"}, "[2]": {"system": "VanA E. faecalis BM 4166", "experiment": "standard microdilution antimicrobial assay", "assay_type": "cell-based"}, "[3]": {"experiment": "in vivo PK in mice", "details": "iv"}, "[4]": {"system": "VanA VRE E. faecalis BM 4166 and E. faecium ATCC BAA-2317", "details": "3 even at 100 μM; cited from earlier work"}, "[5]": {"system": "VanA VRE, 4 strains", "experiment": "standard microdilution assay, panel of vancomycin-resistant organisms", "assay_type": "cell-based, E. faecalis, E. faecium"}, "[6]": {"system": "two VanA VRE strains", "details": "same two VanA VRE strains; cited from earlier work"}, "[7]": {"system": "Sensitive S. aureus ATCC 25923", "experiment": "standard microdilution antimicrobial assay", "assay_type": "cell-based", "details": "Staphylococcus aureus, ATCC25923"}, "[8]": {"system": "VanB E. faecalis ATCC 51299", "experiment": "standard microdilution antimicrobial assay", "assay_type": "cell-based", "details": "Enterococcus faecalis, ATCC51299"}, "[9]": {"system": "VanA VRE E. faecalis BM 4166", "details": "BM 4166, +LTA 100 μg/mL"}, "[10]": {"system": "VanA E. faecium TX2465", "experiment": "standard microdilution antimicrobial assay", "assay_type": "cell-based", "details": "Enterococcus faecium"}, "[11]": {"system": "two VanA VRE strains", "experiment": "multi-passage resistance development assay", "assay_type": "cell-based", "details": "Enterococcus"}, "[12]": {"system": "VanA VRE, 4 strains", "details": "resistant pathogens with D-Ala-D-Lac cell wall precursor; cited from earlier work"}, "[13]": {"system": "VanA VRE E. faecalis BM 4166 and E. faecium ATCC BAA-2317", "experiment": "microdilution antimicrobial assay with added LTA or other additives", "assay_type": "cell-based", "details": "100 μg/mL LTA"}, "[14]": {"system": "VanA VRE E. faecalis BM 4166", "experiment": "microbe, parasite or virus in culture", "details": "Enterococcus faecalis"}, "[15]": {"system": "VanA VRE E. faecium ATCC BAA-2317", "assay_type": "cell-based", "details": "ATCC BAA-2317, +LTA 100 μg/mL"}, "[16]": {"system": "VanA VRE E. faecalis BM 4166 and E. faecium ATCC BAA-2317", "experiment": "bacteria cell membrane permeability assay", "details": "10 μM added at 5 min"}, "[17]": {"system": "MRSA S. aureus ATCC 43300", "experiment": "standard microdilution antimicrobial assay", "assay_type": "cell-based", "details": "Staphylococcus aureus, ATCC43300|MRSA"}, "[18]": {"details": "D-Ala-D-Ala to D-Ala-D-Lac remodeling; cited from earlier work"}, "[19]": {"system": "VanA VRSA strain (VRS2), S. aureus", "details": "cited from earlier work"}},
  "note": "Like-named read-outs stand apart in the source and are kept apart here.",
  "data": [
    {"compound": "CN[C@H](CC(C)C)C(=O)N[C@H]1C(=O)N[C@@H](CC(N)=O)C(=O)N[C@H]2C(=O)N[C@H]3C(=O)N[C@H](C(=O)N[C@H](C(=O)N[C@@H](CCCNC(=N)N)C(=O)O)c4cc(O)cc(O)c4-c4cc3ccc4O)[C@H](O)c3ccc(c(Cl)c3)Oc3cc2cc(c3OC2OC(CO)C(O)[C@H](O)C2O[C@H]2CC(C)(N)[C@H](O)[C@H](C)O2)Oc2ccc(cc2Cl)[C@H]1O", "note": "(stereo partly shown) [Arg-vancomycin (11)]", "values": [
      {"measurement": "MIC", "setting": "[1]", "value": 63, "unit": "µg/mL"},
      {"measurement": "MIC", "setting": "[2]; VanA E. faecalis BM 4166", "value": 63, "unit": "µg/mL"}
    ]},
    {"compound": "CN[C@H](CC(C)C)C(=O)N[C@H]1C(=O)N[C@@H](CC(N)=O)C(=O)N[C@H]2C(=O)NC3C(=O)N[C@H](C(=O)N[C@H](C(=O)NCCC[N+](C)(C)C)c4cc(O)cc(O)c4-c4cc3ccc4O)[C@H](O)c3ccc(c(Cl)c3)Oc3cc2cc(c3OC2OC(CO)C(O)[C@H](O)[C@@H]2O[C@H]2CC(C)(NCc3ccc(-c4ccc(Cl)cc4)cc3)[C@H](O)[C@H](C)O2)Oc2ccc(cc2Cl)[C@H]1O", "note": "(stereo partly shown) [C1-CBP-vancomycin (4)]", "values": [
      {"measurement": "AUC", "setting": "[3]; 10 mg/kg", "value": 48.4, "unit": "Mg-h/mL"},
      {"measurement": "CL", "setting": "[3]; 10 mg/kg", "value": 2, "unit": "mL/min/kg"},
      {"measurement": "Cmax", "setting": "[3]; 10 mg/kg", "value": 14.5, "unit": "Mg/mL"},
      {"measurement": "Vss", "setting": "[3]; 10 mg/kg", "value": 0.64, "unit": "L/kg"},
      {"measurement": "t1/2", "setting": "[3]; 10 mg/kg", "value": 5.1, "unit": "h"},
      {"measurement": "tmax", "setting": "[3]; 10 mg/kg", "value": 4.8, "unit": "min"},
      {"measurement": "MIC", "setting": "[1]", "value": 0.3, "unit": "µg/mL"},
      {"measurement": "induced cell membrane permeabilization, in words", "setting": "[4]", "value": "pronounced membrane permeabilization"},
      {"measurement": "improvement in antimicrobial potency compared with vancomycin", "setting": "[5]", "value": "ca. 1000 fold"}
    ]},
    {"compound": "CN[C@H](CC(C)C)C(=O)N[C@H]1C(=O)N[C@@H](CC(N)=O)C(=O)N[C@H]2C(=O)NC3C(=O)N[C@H](C(=O)N[C@H](C(=O)NCCC[N+](C)(C)C)c4cc(O)cc(O)c4-c4cc3ccc4O)[C@H](O)c3ccc(c(Cl)c3)Oc3cc2cc(c3OC2OC(CO)C(O)[C@H](O)[C@@H]2O[C@H]2CC(C)(N)[C@H](O)[C@H](C)O2)Oc2ccc(cc2Cl)[C@H]1O", "note": "(stereo partly shown) [C1-vancomycin (3)]", "values": [
      {"measurement": "MIC", "setting": "[1]", "value": 31, "unit": "µg/mL"},
      {"measurement": "induced cell membrane permeabilization, in words", "setting": "[4]", "value": "weaker"}
    ]},
    {"compound": "CCCCCCCCCC(=O)N[C@@H](Cc1c[nH]c2ccccc12)C(=O)N[C@H](CC(N)=O)C(=O)N[C@@H](CC(=O)O)C(=O)N[C@@H]1C(=O)NCC(=O)N[C@@H](CCCN)C(=O)N[C@@H](CC(=O)O)C(=O)N[C@H](C)C(=O)N[C@@H](CC(=O)O)C(=O)NCC(=O)N[C@H](CO)C(=O)N[C@@H]([C@H](C)CC(=O)O)C(=O)N[C@@H](CC(=O)c2ccccc2N)C(=O)O[C@@H]1C", "note": "[daptomycin]", "values": [
      {"measurement": "rate of resistance emergence, in words", "setting": "[6]", "value": "raise resistance more rapidly and in a more pronounced manner than either 2 or 5"}
    ]},
    {"compound": "CC(=O)NC[C@H]1CN(c2ccc(N3CCOCC3)c(F)c2)C(=O)O1", "note": "[linezolid]", "values": [
      {"measurement": "rate of resistance emergence, in words", "setting": "[6]", "value": "raise resistance more rapidly and in a more pronounced manner than either 2 or 5"}
    ]},
    {"compound": "CN(C)c1cc(NC(=O)CNC(C)(C)C)c(O)c2c1C[C@H]1C[C@H]3[C@H](N(C)C)C(O)=C(C(N)=O)C(=O)[C@@]3(O)C(O)=C1C2=O", "note": "[tigecycline]", "values": [
      {"measurement": "rate of resistance emergence, in words", "setting": "[6]", "value": "raise resistance more rapidly and in a more pronounced manner than either 2 or 5"}
    ]},
    {"compound": "CN[C@H](CC(C)C)C(=O)N[C@H]1C(=O)N[C@@H](CC(N)=O)C(=O)N[C@H]2C(=O)N[C@H]3C(=O)N[C@H](C(=O)N[C@H](C(=O)O)c4cc(O)cc(O)c4-c4cc3ccc4O)[C@H](O)c3ccc(c(Cl)c3)Oc3cc2cc(c3O[C@@H]2O[C@H](CO)[C@@H](O)[C@H](O)[C@H]2O[C@H]2C[C@](C)(N)[C@H](O)[C@H](C)O2)Oc2ccc(cc2Cl)[C@H]1O", "note": "[vancomycin (1), vancomycin]", "values": [
      {"measurement": "MIC", "setting": "[7]", "value": 0.5, "unit": "µg/mL"},
      {"measurement": "MIC", "setting": "[8]", "value": 8, "unit": "µg/mL"},
      {"measurement": "MIC", "setting": "[9]", "value": 250, "unit": "µg/mL"},
      {"measurement": "MIC", "setting": "[10]", "value": 250, "unit": "µg/mL"},
      {"measurement": "dose proportionality of PK, in words", "setting": "[3]", "value": "well behaved dose proportional PK across all parameters"},
      {"measurement": "MIC", "setting": "[11]", "value": 250, "unit": "µg/mL"},
      {"measurement": "reduction of antimicrobial potency", "setting": "[12]", "value": 1000, "unit": "fold"},
      {"measurement": "MIC", "setting": "[2]; Enterococcus faecalis", "value": 250, "unit": "µg/mL"},
      {"measurement": "decrease of antimicrobial activity with added LTA", "setting": "[13]", "value": "no difference"},
      {"measurement": "MIC", "setting": "[14]", "value": 250, "unit": "µg/mL"},
      {"measurement": "MIC", "setting": "[15]", "value": 250, "unit": "µg/mL"},
      {"measurement": "induced cell membrane permeabilization, in words", "setting": "[16]", "value": "no permeabilization"},
      {"measurement": "MIC", "setting": "[17]", "value": 0.5, "unit": "µg/mL"},
      {"measurement": "reduction of binding affinity", "setting": "[18]", "value": 1000, "unit": "fold"},
      {"measurement": "activity in the thigh infection model, in words", "setting": "[19]", "value": "inactive"}
    ]}
  ]
}
